Data: patent US20240124460A1, “METHODS AND COMPOSITIONS FOR TARGETED PROTEIN DEGRADATION” (Ranok Therapeutics (Hangzhou) Co. Ltd., priority 2020, published 2024)

Legend:
[1] = tested on: MV-4-11 human acute myeloid leukemia; test: MV-4-11 CCK-8 proliferation assay; type: cell-based; details: Homo sapiens, MV4-11; MV-4-11 cells, 72 hr
In short: (§1)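 Inhibition is derived from CCK-8 absorbance of compound-treated cells relative to DMSO-treated cells, after subtracting a cell-free medium/DMSO background. Test concentrations span 20 μM down to 1.02 nM in 3-fold steps, and lines are cultured as ATCC recommends.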

HSP90α protein = target: T1, HSP90α protein (Homo sapiens, UniProt P07900); test: HSP90α-binding FP (BODIPY) assay; details: FP competition with BODIPY-labeled RNK04010
T1 construct: purchased BPS Bioscience #50298
Protocol: Binding of test compounds to HSP90α protein was measured by fluorescent polarization (FP) using the HSP90α (N-terminal) Assay Kit (BPS Bioscience, #50298), following the manufacturer's instructions, except as noted. Fluorescently labeled HSP90-binding compounds, either the provided FITC-geldanamycin (5 nM final concentration) or RNK04010, a triazolone-based HSP90 binding small molecule labeled with BODIPY through a piperazine-phenyl linker (5 nM final concentration) were employed. A 2.5-fold serial dilution of each test compound ranging from 20 μM to 5.2 nM was assayed for binding to HSP90α. After the final step of adding HSP90α protein to each assay well, plates were mixed by brief shaking, incubated at 25° C. for 120 min for FITC-geldanamycin or 300 min for RNK04010, and fluorescence was measured using a PerkinElmer EnVision Plate Reader.

[2] = tested on: U-87 MG human glioblastoma; test: U87 MG CCK-8 proliferation assay; type: cell-based; details: Homo sapiens, U-87 MG, 72 h, U-87 MG cells, read-out: U87MG CCK-8
In short: as §1

Compound | EC50 [1] [nM] | IC50 (HSP90α protein) [nM] | EC50 [2] [nM]
CCOc1cc(N2CCC(C(=O)N3CCC(CN4CCN(Cc5ccc(-n6c(O)nnc6-c6cc(CC)c(O)cc6O)cc5F)CC4)CC3)CC2)ccc1Nc1ncc2c(n1)N(C)c1ccccc1C(=O)N2C [Compound 019, 2-((2-ethoxy-4-(4-(4-((4-(4-(3-(5-ethyl-2,4-dihydroxyphenyl)-5-hydroxy-4H-1,2,4-triazol-4-yl)-2-fluorobenzyl)piperazin-1-yl)methyl)piperidine-1-carbonyl)piperidin-1-yl)phenyl)amino)-5,11-dimethyl-5,11-dihydro-6H-benzo[e]pyrimido[5,4-b][1,4]diazepin-6-one] | < 100 | 100 to 1000 | 100 to 1000
CCCc1cc(-c2nnc(O)n2-c2ccc(CN3CCN(CC4CCN(C(=O)C5CCN(c6ccc(Nc7ncc8c(n7)N(C)c7ccccc7C(=O)N8C)c(OCC)c6)CC5)CC4)CC3)cc2)c(O)cc1O [Compound 020, 2-((4-(4-(4-((4-(4-(3-(2,4-dihydroxy-5-propylphenyl)-5-hydroxy-4H-1,2,4-triazol-4-yl)benzyl)piperazin-1-yl)methyl)piperidine-1-carbonyl)piperidin-1-yl)-2-ethoxyphenyl)amino)-5,11-dimethyl-5,11-dihydro-6H-benzo[e]pyrimido[5,4-b][1,4]diazepin-6-one] | 100 to 1000 | 100 to 1000 | 100 to 1000
CCOc1cc(N2CCC(C(=O)N3CCC(CN4CCN(Cc5ccc(-n6c(C(=O)NC(C)C(F)(F)F)nnc6-c6cc(CC)c(O)cc6O)cc5)CC4)CC3)CC2)ccc1Nc1ncc2c(n1)N(S(C)(=O)=O)c1ccccc1C(=O)N2C (stereo not shown) [Compound 107, 4-(4-((4-((1-(1-(3-ethoxy-4-((5-methyl-11-(methylsulfonyl)-6-oxo-6,11-dihydro-5H-benzo[e]pyrimido[5,4-b][1,4]diazepin-2-yl)amino)phenyl)piperidine-4-carbonyl)piperidin-4-yl)methyl)piperazin-1-yl)methyl)phenyl)-5-(5-ethyl-2,4-dihydroxyphenyl)-N-(1,1,1-trifluoropropan-2-yl)-4H-1,2,4-triazole-3-carboxamide] | < 100 | 100 to 1000 | 
CCOc1cc(N2CCC(C(=O)N3CCC(CN4CCC(COc5ccc(Nc6cc(-n7nc(C(F)(F)F)c8c7CC(C)(C)CC8=O)ccc6C(N)=O)cc5)CC4)CC3)CC2)ccc1Nc1ncc2c(n1)N(S(C)(=O)=O)c1ccccc1C(=O)N2C [Compound 137, 4-(6,6-dimethyl-4-oxo-3-(trifluoromethyl)-4,5,6,7-tetrahydro-1H-indazol-1-yl)-2-((4-((1-((1-(1-(3-ethoxy-4-((5-methyl-11-(methylsulfonyl)-6-oxo-6,11-dihydro-5H-benzo[e]pyrimido[5,4-b][1,4]diazepin-2-yl)amino)phenyl)piperidine-4-carbonyl)piperidin-4-yl)methyl)piperidin-4yl)methoxy)phenyl)amino)benzamide] | 100 to 1000 | > 1000 | 
CCOc1cc(N2CCC(C(=O)N3CCC(CN4CCN(CCOc5ccc(Nc6cc(-n7nc(C(F)(F)F)c8c7CC(C)(C)CC8=O)ccc6C(N)=O)cc5)CC4)CC3)CC2)ccc1Nc1ncc2c(n1)N(S(C)(=O)=O)c1ccccc1C(=O)N2C [Compound 138, 4-(6,6-dimethyl-4-oxo-3-(trifluoromethyl)-4,5,6,7-tetrahydro-1H-indazol-1-yl)-2-((4-(2-(4-((1-(1-(3-ethoxy-4-((5-methyl-11-(methylsulfonyl)-6-oxo-6,11-dihydro-5H-benzo[e]pyrimido[5,4-b][1,4]diazepin-2-yl)amino)phenyl)piperidine-4-carbonyl)piperidin-4-yl)methyl)piperazin-1-yl)ethoxy)phenyl)amino)benzamide] | 100 to 1000 | > 1000 | 
CCOc1cc(N2CCC(C(=O)NCCOCCOCCOc3ccc(Nc4cc(-n5nc(C(F)(F)F)c6c5CC(C)(C)CC6=O)ccc4C(N)=O)cc3)CC2)ccc1Nc1ncc2c(n1)N(S(C)(=O)=O)c1ccccc1C(=O)N2C [Compound 139, N-(2-(2-(2-(4-((2-carbamoyl-5-(6,6-dimethyl-4-oxo-3-(trifluoromethyl)-4,5,6,7-tetrahydro-1H-indazol-1-yl)phenyl)amino)phenoxy)ethoxy)ethoxy)ethyl)-1-(3-ethoxy-4-((5-methyl-11-(methylsulfonyl)-6-oxo-6,11-dihydro-5H-benzo[e]pyrimido[5,4-b][1,4]diazepin-2-yl)amino)phenyl)piperidine-4-carboxamide] | 100 to 1000 | > 1000 | 
CCOc1cc(N2CCC(C(=O)NCCOCCOCCOCCOc3ccc(Nc4cc(-n5nc(C(F)(F)F)c6c5CC(C)(C)CC6=O)ccc4C(N)=O)cc3)CC2)ccc1Nc1ncc2c(n1)N(S(C)(=O)=O)c1ccccc1C(=O)N2C [Compound 140, N-(2-(2-(2-(2-(4-((2-carbamoyl-5-(6,6-dimethyl-4-oxo-3-(trifluoromethyl)-4,5,6,7-tetrahydro-1H-indazol-1-yl)phenyl)amino)phenoxy)ethoxy)ethoxy)ethoxy)ethyl)-1-(3-ethoxy-4-((5-methyl-11-(methylsulfonyl)-6-oxo-6,11-dihydro-5H-benzo[e]pyrimido[5,4-b][1,4]diazepin-2-yl)amino)phenyl)piperidine-4-carboxamide] | 100 to 1000 | > 1000 | 
CCOc1cc(N2CCC(CN3CCN(Cc4ccc(-n5c(C(=O)NC(C)C(F)(F)F)nnc5-c5cc(CC)c(O)cc5O)cc4)CC3)CC2)ccc1Nc1ncc2c(n1)N(S(C)(=O)=O)c1ccccc1C(=O)N2C (stereo not shown) [Compound 185, 4-(4-((4-((1-(3-ethoxy-4-((5-methyl-11-(methylsulfonyl)-6-oxo-6,11-dihydro-5H-benzo[e]pyrimido[5,4-b][1,4]diazepin-2-yl)amino)phenyl)piperidin-4-yl)methyl)piperazin-1-yl)methyl)phenyl)-5-(5-ethyl-2,4-dihydroxyphenyl)-N-(1,1,1-trifluoropropan-2-yl)-4H-1,2,4-triazole-3-carboxamide] | < 100 |  | 100 to 1000
CCOc1cc(N2CCC(CN3CCN(Cc4ccc(-n5c(C(=O)NC(C)C(F)(F)F)nnc5-c5cc(CC)c(O)cc5O)cc4)CC3)CC2)ccc1Nc1ncc2c(n1)N(C1CCCC1)c1ccccc1C(=O)N2C (stereo not shown) [Compound 186, 4-(4-((4-((1-(4-((11-cyclopentyl-5-methyl-6-oxo-6,11-dihydro-5H-benzo[e]pyrimido[5,4-b][1,4]diazepin-2-yl)amino)-3-ethoxyphenyl)piperidin-4-yl)methyl)piperazin-1-yl)methyl)phenyl)-5-(5-ethyl-2,4-dihydroxyphenyl)-N-(1,1,1-trifluoropropan-2-yl)-4H-1,2,4-triazole-3-carboxamide] | 100 to 1000 |  | > 1000
CCOc1cc(N2CCC(CN3CCN(Cc4ccc(-n5c(O)nnc5-c5cc(C(C)C)c(O)cc5O)cc4)CC3)CC2)ccc1Nc1ncc2c(n1)N(S(C)(=O)=O)c1ccccc1C(=O)N2C [Compound 187, 2-((4-(4-((4-(4-(3-(2,4-dihydroxy-5-isopropylphenyl)-5-hydroxy-4H-1,2,4-triazol-4-yl)benzyl)piperazin-1-yl)methyl)piperidin-1-yl)-2-ethoxyphenyl)amino)-5-methyl-11-(methylsulfonyl)-5,11-dihydro-6H-benzo[e]pyrimido[5,4-b][1,4]diazepin-6-one] | < 100 |  | < 100
CCOc1cc(N2CCN(Cc3ccc(-n4c(O)nnc4-c4cc(C(C)C)c(O)cc4O)cc3)CC2)ccc1Nc1ncc2c(n1)N(C1CCCC1)c1ccccc1C(=O)N2C [Compound 188, 11-cyclopentyl-2-((4-(4-(4-(3-(2,4-dihydroxy-5-isopropylphenyl)-5-hydroxy-4H-1,2,4-triazol-4-yl)benzyl)piperazin-1-yl)-2-ethoxyphenyl)amino)-5-methyl-5,11-dihydro-6H-benzo[e]pyrimido[5,4-b][1,4]diazepin-6-one] | 100 to 1000 |  | > 1000
CCNC(=O)c1nnc(-c2cc(C(C)C)c(O)cc2O)n1-c1ccc(CN2CCN(c3ccc(Nc4ncc5c(n4)N(C4CCCC4)c4ccccc4C(=O)N5C)c(OCC)c3)CC2)cc1 [Compound 190, 4-(4-((4-(4-((11-cyclopentyl-5-methyl-6-oxo-6,11-dihydro-5H-benzo[e]pyrimido[5,4-b][1,4]diazepin-2-yl)amino)-3-ethoxyphenyl)piperazin-1-yl)methyl)phenyl)-5-(2,4-dihydroxy-5-isopropylphenyl)-N-ethyl-4H-1,2,4-triazole-3-carboxamide] | 100 to 1000 |  | 100 to 1000
CCOc1cc(CN2CCC(CN3CCN(Cc4ccc(-n5c(C(=O)NCC(F)(F)F)nnc5-c5cc(C(C)C)c(O)cc5O)cc4)CC3)CC2)ccc1Nc1ncc2c(n1)N(S(C)(=O)=O)c1ccccc1C(=O)N2C [Compound 191, 5-(2,4-dihydroxy-5-isopropylphenyl)-4-(4-((4-((1-(3-ethoxy-4-((5-methyl-11-(methylsulfonyl)-6-oxo-6,11-dihydro-5H-benzo[e]pyrimido[5,4-b][1,4]diazepin-2-yl)amino)benzyl)piperidin-4-yl)methyl)piperazin-1-yl)methyl)phenyl)-N-(2,2,2-trifluoroethyl)-4H-1,2,4-triazole-3-carboxamide] | < 100 |  | < 100
